Assay results reported in US7741355B2, “Small-molecule modulators of TRP-p8 activity” (Dendreon Corporation, priority 2006, dated 2010).
Like-named read-outs stand apart in the source and are kept apart here.

Assays:
Trp-p8 = target: T1, Trp-p8 (Homo sapiens, UniProt Q7Z2W7, T58I); experiment: ATP viability assay with CHO/Trp-p8 cells at 37° C.; format: cell-based
T1 construct: expressed in transfected cells; host or cells: CHO (Chinese Hamster Ovary) cells
From the text: (§1) Human Trp-p8 transfected CHO cells (referred to herein as CHO/Trp-p8) were generated for use in experiments of the present invention. Expression of Trp-p8 polypeptide in this transfectant and the absence of any endogenous expression in the non-transfected CHO was confirmed by western blot and immunofluorescence using a Trp-p8 specific antibody (GS2.20) as well as the calcium flux assay with Icilin (1-[2-hydroxyphenyl]-4-[3-nitrophenyl]-1,2,3,6-tetrahydropyrimidine-2-one) and menthol (2-isopropyl-5-methyl-cyclohexanol). Non-transfected CHO cells were used to establish the specificity of the effects of the compounds observed with CHO/Trp-p8.
This Example discloses an ATP viability assay suitable for screening for effective Trp-p8 agonists. The ATP viability assay described herein employs CHO cells expressing an exogenous Trp-p8 cDNA. This example further establishes that Trp-p8 agonists of the present invention are effective in decreasing the viability of Trp-p8 expressing cells.
The concentration of intracellular ATP declines very rapidly when metabolically active cells undergo necrosis and/or apoptosis. The ATP concentration and consequently the relative cell viability can be measured by established methods using commercially available reagents. In the agonist screening methodology disclosed herein, a compound that specifically decreases the viability of CHO/Trp-p8 cells is referred to as an agonist.
(§2) As a primary screen for efficacy and specificity for agonists, both the non-transfected CHO and CHO/Trp-p8 cells were exposed to 1 or 10 μM of test compounds in 1% dimethylsulfoxide (DMSO) or 1% DMSO (control) in a 96-well black walled, black-bottomed, cell-culture treated plate. DMSO was the solvent for all of the compounds tested. After 24-26 hours at 37° C., the cells were lysed and ATP concentration determined via a chemiluminescence assay using a commercially available reagent kit—Cell Titer-Glo (Promega; Madison, Wis.). […] (EC50 is defined herein as the agonist concentration at which there is a 50% reduction in relative cell viability).

Parent CHO = experiment: ATP viability assay with non-transfected (parent) CHO cells; format: cell-based, Chinese Hamster; settings: Cricetulus griseus
From the text: as §1, §2

[1] = Plasma concentrations in rats after a single oral dose; format: in vivo; settings: rodents (FIG. 9A: rats), aqueous formulation, oral gavage
From the text: (§3) FIGS. 9A and 9B are graphs depicting the plasma concentrations of several compounds, as a function of time and dose, in rats (FIG. 9A), and dogs (FIG. 9B) after a single oral dose. […] Blood was collected at the indicated time points, and analyzed for drug levels.

[2] = Plasma concentrations in dogs after a single oral dose; format: in vivo; settings: Beagle dogs (FIG. 9B), aqueous formulation, oral gavage
From the text: as §3

[3] = Sustained plasma levels after oral dosing (half-life, species not stated); format: in vivo; settings: oral administration, read-out: t½ (sustained plasma levels) (converted)
From the text: as §3

[4] = Table 5, Formula I-E, CHO/Trp-p8 cells, 24-26 hours at 37° C., 50% reduction in relative cell viability, read-out: EC50
[5] = ATP viability assay, read-out: CHO/Trp-p8 EC50

T1 sequence (Q7Z2W7 whole entry T58I): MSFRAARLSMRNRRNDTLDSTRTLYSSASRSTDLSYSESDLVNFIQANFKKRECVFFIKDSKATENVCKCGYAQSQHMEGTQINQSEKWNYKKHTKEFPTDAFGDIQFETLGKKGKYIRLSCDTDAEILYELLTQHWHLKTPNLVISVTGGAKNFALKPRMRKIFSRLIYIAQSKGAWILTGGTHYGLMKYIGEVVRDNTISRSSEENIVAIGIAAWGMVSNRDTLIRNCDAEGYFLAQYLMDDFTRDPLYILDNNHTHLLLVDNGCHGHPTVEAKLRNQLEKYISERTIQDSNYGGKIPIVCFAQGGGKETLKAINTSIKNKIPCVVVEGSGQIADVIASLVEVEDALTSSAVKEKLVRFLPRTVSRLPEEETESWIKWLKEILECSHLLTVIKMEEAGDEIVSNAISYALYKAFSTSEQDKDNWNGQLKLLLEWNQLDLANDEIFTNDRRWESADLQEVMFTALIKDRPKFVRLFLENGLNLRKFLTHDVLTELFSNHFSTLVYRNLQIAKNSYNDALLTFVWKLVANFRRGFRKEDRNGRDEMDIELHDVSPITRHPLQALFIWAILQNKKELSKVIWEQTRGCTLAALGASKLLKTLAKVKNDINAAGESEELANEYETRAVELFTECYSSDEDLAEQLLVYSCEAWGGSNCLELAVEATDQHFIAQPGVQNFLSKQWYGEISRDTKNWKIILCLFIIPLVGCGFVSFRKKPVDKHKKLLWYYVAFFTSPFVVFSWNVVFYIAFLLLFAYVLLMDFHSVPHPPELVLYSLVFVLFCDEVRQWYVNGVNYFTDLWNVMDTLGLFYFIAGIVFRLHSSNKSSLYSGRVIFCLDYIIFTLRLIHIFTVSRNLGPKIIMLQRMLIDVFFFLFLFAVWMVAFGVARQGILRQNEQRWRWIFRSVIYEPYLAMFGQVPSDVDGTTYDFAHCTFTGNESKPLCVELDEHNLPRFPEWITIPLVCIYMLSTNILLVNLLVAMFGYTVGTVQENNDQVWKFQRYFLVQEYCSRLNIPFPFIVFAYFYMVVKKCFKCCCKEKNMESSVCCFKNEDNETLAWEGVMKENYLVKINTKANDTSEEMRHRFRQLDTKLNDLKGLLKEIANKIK

For `CSc1ccc2c(c1)n(CCN)c(=O)n2C(=O)[C@@H]1C[C@H](C)CC[C@H]1C(C)C` [Compound 42, 3-(2-Amino-ethyl)-1-(2-isopropyl-5-methyl-cyclohexanecarbonyl)-5-methylsulfanyl-1,3-dihydro-benzoimidazol-2-one], the EC50 (Trp-p8; [4]) was under 20 nM.

For `CC(C)[C@@H]1CC[C@@H](C)C[C@H]1C(=O)n1c(=O)n(CCN)c2cc([S+](C)[O-])ccc21` (some centres unmarked) [Compound 43, 3-(2-Amino-ethyl)-1-(2-isopropyl-5-methyl-cyclohexanecarbonyl)-5-methylsulfinyl-1,3-dihydro-benzoimidazol-2-one], the EC50 (Trp-p8; [4]) was under 20 nM.

`CCN(CC)CCNC(=O)c1ccc2c(c1)n(CCN)c(=O)n2C(=O)[C@@H]1C[C@H](C)CC[C@H]1C(C)C` [Compound 44, 3-(2-Amino-ethyl)-1-(2-isopropyl-5-methylcyclohexanecarbonyl)-2-oxo-2,3-dihydro-1H-benzoimidazole-5-carboxylic acid (2-diethylamino-ethyl)amide] gave an EC50 (Trp-p8; [4]) of under 20 nM.

For `CC(C)[C@@H]1CC[C@@H](C)C[C@H]1C(=O)n1c(=O)n(C[C@@H](C)N)c2ccccc21` [Compound 45, 1-(2-Amino-2-(R)-methylethyl)-3-(2-isopropyl-5-methylcyclohexanecarbonyl)-1,3-dihydro-benzoimidazol-2-one], the EC50 (Trp-p8; [4]) was under 20 nM.

In the case of `C#CCOc1ccc2c(c1)n(CCN)c(=O)n2C(=O)[C@@H]1C[C@H](C)CC[C@H]1C(C)C` [Compound 46], the EC50 (Trp-p8; [4]) is reported as under 20 nM.

Compound `COCCNC(=O)c1ccc2c(c1)n(CCN)c(=O)n2C(=O)[C@@H]1C[C@H](C)CC[C@H]1C(C)C` [Compound 49] has an EC50 (Trp-p8; [4]) of under 20 nM.

In the case of `CC(C)[C@@H]1CC[C@@H](C)C[C@H]1C(=O)n1c(=O)n(CCN)c2ccccc21` [Compound 50, 1-(2-Aminoethyl)-3-(2-isopropyl-5-methylcyclohexanecarbonyl)-1,3-dihydro-benzoimidazol-2-one], the EC50 (Trp-p8; [4]) is reported as under 20 nM.

`CC(C)[C@@H]1CC[C@@H](C)C[C@H]1C(=O)n1c(=O)n(CCN)c2cc3ccccc3cc21` [Compound 51] showed an EC50 (Trp-p8; [4]) of under 20 nM.

In the case of `CC(C)[C@@H]1CC[C@@H](C)C[C@H]1C(=O)n1c(=O)n(CCN)c2cc(C(=O)NCCO)ccc21` [Compound 52], the EC50 (Trp-p8; [4]) is reported as under 20 nM.

For `CC(C)[C@@H]1CC[C@@H](C)C[C@H]1C(=O)n1c(=O)n(CCN)c2cnccc21` [Compound 54], the EC50 (Trp-p8; [4]) was 21 to 50 nM.

Work on `CCN(CC)CCNC(=O)c1cccc2c1n(CCN)c(=O)n2C(=O)[C@@H]1C[C@H](C)CC[C@H]1C(C)C` [Compound 55] yielded an EC50 (Trp-p8; [4]) of 21 to 50 nM.

`CC(C)[C@@H]1CC[C@@H](C)C[C@H]1C(=O)n1c(=O)n(CCN)c2cc(C(=O)Nc3ccncc3)ccc21` [Compound 56] showed an EC50 (Trp-p8; [4]) of 21 to 50 nM.

`CC(C)[C@@H]1CC[C@@H](C)C[C@H]1C(=O)n1c(=O)n(CCN)c2ncccc21` [Compound 57] gave an EC50 (Trp-p8; [4]) of 21 to 50 nM.

`CC(C)[C@@H]1CC[C@@H](C)C[C@H]1C(=O)n1c(=O)n(CCCN)c2ccccc21` [Compound 58] gave an EC50 (Trp-p8; [4]) of 21 to 50 nM.

Work on `CC(C)[C@@H]1CC[C@@H](C)C[C@H]1C(=O)n1c(=O)n(CCN)c2cc(C(=O)Nc3ccccc3)ccc21` [Compound 59] yielded an EC50 (Trp-p8; [4]) of 21 to 50 nM.

With `CC(C)[C@@H]1CC[C@@H](C)C[C@H]1C(=O)n1c(=O)n(CCN)c2ccc(C(F)(F)F)cc21` [Compound 61] the EC50 (Trp-p8; [4]) was 21 to 50 nM.

`CC(C)[C@@H]1CC[C@@H](C)C[C@H]1C(=O)n1c(=O)n(CCN)c2ccncc21` [Compound 62] showed an EC50 (Trp-p8; [4]) of 21 to 50 nM.

`CC(C)[C@@H]1CC[C@@H](C)C[C@H]1C(=O)n1c(=O)n(CCN)c2cc(C(=O)NCc3ccccc3)ccc21` [Compound 63] showed an EC50 (Trp-p8; [4]) of 21 to 50 nM.

Work on `CC(C)[C@@H]1CC[C@@H](C)C[C@H]1C(=O)n1c(=O)n(CCN)c2cc(C(=O)N3CCOCC3)ccc21` [Compound 64] yielded an EC50 (Trp-p8; [4]) of 21 to 50 nM.

In the case of `CC(C)[C@@H]1CC[C@@H](C)C[C@H]1C(=O)n1c(=O)n(CCN)c2cc(OCC(=O)c3ccccc3)ccc21` [Compound 65], the EC50 (Trp-p8; [4]) is reported as 21 to 50 nM.

`CNCCn1c(=O)n(C(=O)[C@@H]2C[C@H](C)CC[C@H]2C(C)C)c2ccccc21` [Compound 66] gave an EC50 (Trp-p8; [4]) of 21 to 50 nM.

Work on `CCCCOc1ccc2c(c1)n(CCN)c(=O)n2C(=O)[C@@H]1C[C@H](C)CC[C@H]1C(C)C` [Compound 67] yielded an EC50 (Trp-p8; [4]) of 51 to 100 nM.

Work on `CC(C)[C@@H]1CC[C@@H](C)C[C@H]1C(=O)n1c(=O)n(CCN)c2cc(C(=O)N(C)c3ccccc3)ccc21` [Compound 68] yielded an EC50 (Trp-p8; [4]) of 51 to 100 nM.

`CCOC(=O)N1CCN(C(=O)c2ccc3c(c2)n(CCN)c(=O)n3C(=O)[C@@H]2C[C@H](C)CC[C@H]2C(C)C)CC1` [Compound 69] gave an EC50 (Trp-p8; [4]) of 51 to 100 nM.

`CCN(CC)C(=O)c1ccc2c(c1)n(CCN)c(=O)n2C(=O)[C@@H]1C[C@H](C)CC[C@H]1C(C)C` [Compound 70] showed an EC50 (Trp-p8; [4]) of 51 to 100 nM.

For `CC(C)[C@@H]1CC[C@@H](C)C[C@H]1C(=O)n1c(=O)n(CCN)c2cc(C(=O)NCCc3ccccc3)ccc21` [Compound 71], the EC50 (Trp-p8; [4]) was 51 to 100 nM.

With `CC(C)[C@@H]1CC[C@@H](C)C[C@H]1C(=O)n1c(=O)n(CCN)c2cc(C(=O)N[C@@H](CO)[C@@H](O)c3ccccc3)ccc21` [Compound 72] the EC50 (Trp-p8; [4]) was 51 to 100 nM.

For `CC(C)[C@@H]1CC[C@@H](C)C[C@H]1C(=O)n1c(=O)n(CCN)c2cc(C(=O)NCC(N)=O)ccc21` [Compound 73], the EC50 (Trp-p8; [4]) was 51 to 100 nM.

Compound `CC(C)[C@@H]1CC[C@@H](C)C[C@H]1C(=O)n1c(=O)n(CCN)c2cc(C(=O)NC(CO)CO)ccc21` [Compound 74] has an EC50 (Trp-p8; [4]) of 51 to 100 nM.

Work on `CC(C)[C@@H]1CC[C@@H](C)C[C@H]1C(=O)n1c(=O)n(CCN)c2cc(OCc3ccccc3)ccc21` [Compound 75] yielded an EC50 (Trp-p8; [4]) of 51 to 100 nM.

`CC(C)[C@@H]1CC[C@@H](C)C[C@H]1C(=O)n1c(=O)n(CCCCN)c2ccccc21` [Compound 76] gave an EC50 (Trp-p8; [4]) of 51 to 100 nM.

In the case of `CC(C)[C@@H]1CC[C@@H](C)C[C@H]1C(=O)Nc1cc(-c2ccccc2)nn1CCN` [III], the EC50 (Trp-p8; [5]) is reported as 10 nM, the EC50 (Parent CHO) is reported as over 10000 nM and the “exposure after a single oral administration” value (“exposure” for short) [1] is reported as “prolonged exposure”. For the same compound, the “exposure” value [2] was “prolonged exposure” and the half-life [3] was about 9 h.

In the case of `CC(C)[C@@H]1CC[C@@H](C)C[C@H]1C(=O)n1c(=O)n(CCN)c2ccccc21` [II], the EC50 (Trp-p8; [5]) is reported as 10 nM, the EC50 (Parent CHO) is reported as over 10000 nM and the “exposure” value [1] is reported as “prolonged exposure”. The “exposure” value [2] was “prolonged exposure” and the half-life [3] was about 9 h.
